Measured values: patent publication US20120190613A1, “ECHINOCANDIN DERIVATIVES” (priority 2009, published 2012)
Values after ≈ are worked out from the molar mass of the structure shown. Marks after values point to notes of the source that are not given here. Starred links: 1 amine or outer side, 2 acyl side, 3 side chain; linkers in the order of their positions; H or OH if unused. Positions of bridges follow the written chain, without caps; N, C: chain ends. Non-standard residues stand in square brackets, D forms with d. Residues, ends and D or L forms follow the SMILES beside them. *: point of attachment. pTerphenylCO(4''-OnC5H11) = CCCCCOc1ccc(-c2ccc(-c3ccc(C(=O)*)cc3)cc2)cc1; Orn(4R-OH,5R-OH) = O=C([C@H](C[C@@H](O)[C@@H](O)N[*:3])N[*:1])[*:2]; Tetradecanoyl(10R,12S-Me2) = CC[C@H](C)C[C@H](C)CCCCCCCCC(=O)*; hTyr(3S-OH,4S-OH) = N[C@H](C(=O)O)[C@H](O)[C@@H](O)c1ccc(O)cc1; Pro(3S-OH,4S-Me) = C[C@H]1CN[C@H](C(=O)O)[C@H]1O; Gln(3R-OH) = NC(=O)C[C@@H](O)[C@H](N)C(=O)O; Pro(3S-OH) = O=C(O)[C@H]1NCC[C@@H]1O; Hyp = O=C(O)[C@@H]1C[C@@H](O)CN1

Experiments:
[1] = test system: C. albicans 104 ATCC 90028; assay: MIC by broth microdilution against C. albicans; format: cell-based
Experimental: (§1) MIC values (μg/mL) of echinocandin class compounds of the invention against various Candida and Aspergillus species were obtained as follows. Test organisms were obtained from the American Type Culture Collection (Manassas, Va.). The isolates were maintained at −80 ° C., then thawed and sub-cultured one day prior to testing (seven days for Aspergillus strains).
(§2) The mouse serum was heat-inactivated for 30 minutes at 56° C., and filtered through a 0.2 μm low protein binding filter unit prior to use.
(§3) MIC values were determined using broth microdilution. The wells of the daughter plates ultimately contained 180 μL of RPMI-1640 medium with and without mouse serum, 10 μL of drug solution, and 10 μL of yeast or fungal inoculum.
(§4) Prior to susceptibility testing, fungal isolates were removed from frozen storage, thawed at room temperature, and subcultured to Potato Dextrose Agar. The Candida strains were incubated overnight at 35° C. and the Aspergillus strains for 7 days at 25° C. Yeast colonies were inoculated into sterile saline and adjusted to the turbidity of a 0.5 McFarland standard. Inoculums from Aspergillus strains were prepared by washing the surface of an agar slant with 1 mL of sterile saline containing 0.05% of Tween 20. The resulting colloidial suspensions were adjusted to an optical density of 0.09 to 0.11 at λ 625 nm.
(§5) Both the yeast and filamentous fungus suspensions were further diluted 1:100 in RPMI-1640 medium and dispensed into sterile reservoirs and used to inoculate the daughter plates. 10 μL of standardized inoculum was delivered into each well. This yielded a final cell concentration in the daughter plates of approximately 2.5×10^3 colony-forming units/mL. Plates were incubated at 35° C. for approximately 48 hr.
(§6) Following incubation, microplates were viewed from the bottom using a plate viewer.

[2] = test system: C. parapsilosis 630 ATCC 90018; assay: MIC by broth microdilution against C. parapsilosis; format: cell-based
Experimental: as §1, §2, §3, §4, §5, §6

[3] = test system: A. flavus 626 ATCC 64025; assay: MIC by broth microdilution against A. flavus; format: cell-based; details: growth reduction of 50%
Experimental: as §1, §2, §3, §4, §5, §6

[4] = test system: C. albicans R303; assay: Mouse candidiasis infection model, C. albicans density in kidneys; format: in vivo, female CD-1 mice; details: for Difference from 24-hr control / Mean log10 CFU/kidneys (±SD) / Mean log10 CFU/kidneys (±SEM): kidneys at 24 hr
Experimental: The objective of these studies was to evaluate the efficacy of test compounds in the mouse candidiasis infection model.
The strain, C. albicans R303 was transferred from frozen storage onto Sabauroud dextrose agar (SDA) plates and grown for ˜24 hr at 35° C. The inoculum was prepared by transferring colonies from the plate to phosphate buffered saline (PBS) and the concentration adjusted to 10^6 CFU/mL with the aid of a spectrophotometer. The stock was diluted 1:9 to prepare the inoculum. Prior to each run the concentration was verified using the dilution plate count method.
The female CD-1 mice used in this study were obtained from Charles River Laboratories, Portage, MI. The animals were approximately seven-weeks-old at the start of the study and weighed about 16-26 g.
In one approach, mice were made neutropenic with IP injections of cyclophosphamide (150 mg/kg in 10 mL/kg) at 4 and 1 day before inoculation. Each animal was inoculated with the appropriate concentration by injecting 0.1 mL of inoculum into a tail vein. The test compounds were administered IP at 2 hr after infection.
The kidneys were collected from four mice in control group 1 (untreated) at 2 hr after infection, and from the remaining mice in the study at 24 hr after infection. Kidneys were removed aseptically from each mouse and were combined in a sterile tube. An aliquot (2 mL) of sterile PBS was added to each tube and the contents homogenized with a tissue homogenizer (Polytron 3100). Serial dilutions of the tissue homogenates were conducted and 0.1 mL aliquots were spread on SDA plates and the plates incubated at 35° C. overnight. The CFU/kidneys were determined from colony counts. Data were analyzed using one-way ANOVA with the Tukey-Kramer Multiple Comparisons Test (GraphPad InStat version 3.06, GraphPad Software, San Diego, Calif.).
Treatments were administered at 2 hr after infection with 2.1×10^5 CFU/mL of the organism. Data are the means of four mice.
Treatments were administered at 2 hr after infection with 6.4×10^5 CFU/mL of the organism. Data are the means of four mice.
Treatments were administered at 2 hr after infection with 3.8×10^5 CFU/mL of the organism. Data are the means of four mice.
Treatments were administered at 2 hr after infection with 3.8×10^5 CFU/rnL of the organism. Data are the means of four mice.

[5] = Second run, 1 mg/kg IP 2 hr after infection
[6] = Third run, 0.5 mg/kg IP 2 hr after infection
[7] = Third run, 1.5 mg/kg IP 2 hr after infection
[8] = Third run, 4.5 mg/kg IP 2 hr after infection
[9] = Second run, 5 mg/kg IP 2 hr after infection

Structure (SMILES) | MIC ([1]; 0% mouse serum, 48 hr) [µg/mL] | MIC ([1]; 50% mouse serum, 48 hr) [µg/mL] | MIC ([2]; 0% mouse serum, 48 hr) [µg/mL] | MIC ([2]; 50% mouse serum, 48 hr) [µg/mL] | MIC ([3]; 0% mouse serum, 48 hr) [µg/mL] | MIC ([3]; 50% mouse serum, 48 hr) [µg/mL] | other results
CCCCCOc1ccc(-c2ccc(-c3ccc(C(=O)N[C@H]4C[C@@H](O)[C@@H](O)NC(=O)[C@@H]5[C@@H](O)[C@@H](C)CN5C(=O)[C@H]([C@@H](C)O)NC(=O)[C@H]([C@H](O)[C@@H](O)c5ccc(O)cc5)NC(=O)[C@@H]5C[C@@H](O)CN5C(=O)[C@H]([C@@H](C)O)NC4=O)cc3)cc2)cc1 [Anidulafungin, anidulafungin, reference compound] ({pTerphenylCO(4''-OnC5H11)}-[Orn(4R-OH,5R-OH)]T[Hyp][hTyr(3S-OH,4S-OH)]T[Pro(3S-OH,4S-Me)]; lactam 1-C) |  |  |  |  |  |  | MIC ([1]; Candida albicans, ATCC90028, 48 h, 0% mouse serum): 0.03 µg/mL (≈ 0.0263 µM); MIC ([1]; Candida albicans, ATCC90028, 48 h, 50% mouse serum): 0.06 µg/mL (≈ 0.0526 µM); MIC ([2]; Lodderomyces parapsilosis, ATCC90018, 48 h, 0% mouse serum): 2 µg/mL (≈ 1.75 µM); MIC ([2]; Lodderomyces parapsilosis, ATCC90018, 48 h, 50% mouse serum): > 16 µg/mL; MIC ([3]; Aspergillus flavus, ATCC64025, 48 h, 0% mouse serum): < 0.015 µg/mL; MIC ([3]; Aspergillus flavus, ATCC64025, 48 h, 50% mouse serum): 0.03 µg/mL (≈ 0.0263 µM); Difference from 24-hr control ([4]; First run, 1 mg/kg IP 2 hr after infection): −1.68*** log10 CFU/kidneys; Mean log10 CFU/kidneys (±SD) ([4]; First run, 1 mg/kg IP 2 hr after infection, neutropenic mice): 3.09 ± 0.61 log10 CFU/kidneys; Difference from 24-hr control [4, 5]: −1.83*** log10 CFU/kidneys; Mean log10 CFU/kidneys (±SD) [4, 5]: 3.37 ± 0.72 log10 CFU/kidneys; Difference from 24-hr control [4, 6]: −0.47 ns log10 CFU/kidneys; Mean log10 CFU/kidneys (±SEM) [4, 6]: 4.41 ± 0.12 log10 CFU/kidneys; Difference from 24-hr control [4, 7]: −2.11*** log10 CFU/kidneys; Mean log10 CFU/kidneys (±SEM) [4, 7]: 2.77 ± 0.20 log10 CFU/kidneys; Difference from 24-hr control [4, 8]: −3.78*** log10 CFU/kidneys; Mean log10 CFU/kidneys (±SEM) [4, 8]: 1.10 ± 0.38 log10 CFU/kidneys
CCC(C)CC(C)CCCCCCCCC(=O)NC1CC(O)C(NCCNC(=O)CCCCCCCOCCOCCOCCOCCOCCOCCOCCOC)NC(=O)C2C(O)CCN2C(=O)C(C(O)CCN)NC(=O)C(C(O)C(O)c2ccc(O)cc2)NC(=O)C2CC(O)CN2C(=O)C(C(C)O)NC1=O (stereo not shown) [Compound 3] | 2 (≈ 1.28 µM) | >16 | >16 | >16 | 2 (≈ 1.28 µM) | 8 (≈ 5.14 µM) | 
CCCCCOc1ccc(-c2ccc(-c3ccc(C(=O)NC4CC(O)C(OCCOCCOCCOCCOCCOCCOCCOC)NC(=O)C5C(O)C(C)CN5C(=O)C(C(C)O)NC(=O)C(C(O)C(O)c5ccc(O)cc5)NC(=O)C5CC(O)CN5C(=O)C(C(C)O)NC4=O)cc3)cc2)cc1 (stereo not shown) [Compound 6] | 2 (≈ 1.37 µM) | 8 (≈ 5.47 µM) | >16 | >16 | 0.125 (≈ 0.0855 µM) | 0.5 (≈ 0.342 µM) | 
CCC(C)CC(C)CCCCCCCCC(=O)NC1CC(O)C(OCCOCCOCCOCCOC)NC(=O)C2C(O)CCN2C(=O)C(C(O)CC(N)=O)NC(=O)C(C(O)C(O)c2ccc(O)cc2)NC(=O)C2CC(O)CN2C(=O)C(C(C)O)NC1=O (stereo not shown) [Compound 8] | 8 (≈ 6.37 µM) | >16 | >16 | >16 | 0.5 (≈ 0.398 µM) | 2 (≈ 1.59 µM) | 
CCC(C)CC(C)CCCCCCCCC(=O)NC1CC(O)C(OCCOCCOCCOCCOCCOCCOCCOC)NC(=O)C2C(O)CCN2C(=O)C(C(O)CC(N)=O)NC(=O)C(C(O)C(O)c2ccc(O)cc2)NC(=O)C2CC(O)CN2C(=O)C(C(C)O)NC1=O (stereo not shown) [Compound 9] | >16 | >16 | >16 | >16 | 2 (≈ 1.44 µM) | 8 (≈ 5.77 µM) | 
CCC(C)CC(C)CCCCCCCCC(=O)NC1CC(O)C(OCCCCCCOCCOCCOCCOCCOCCOCCOCCOC)NC(=O)C2C(O)CCN2C(=O)C(C(O)CC(N)=O)NC(=O)C(C(O)C(O)c2ccc(O)cc2)NC(=O)C2CC(O)CN2C(=O)C(C(C)O)NC1=O (stereo not shown) [Compound 10] | >16 | >16 | >16 | >16 | 4 (≈ 2.69 µM) | 16 (≈ 10.8 µM) | 
CCCCCOc1ccc(-c2ccc(-c3ccc(C(=O)NC4CC(O)C(OCCOCCOCCOC)NC(=O)C5C(O)C(C)CN5C(=O)C(C(C)O)NC(=O)C(C(O)C(O)c5ccc(O)cc5)NC(=O)C5CC(O)CN5C(=O)C(C(C)O)NC4=O)cc3)cc2)cc1 (stereo not shown) [Compound 20] |  |  |  |  |  |  | Difference from 24-hr control [4, 9]: −3.27*** log10 CFU/kidneys; Mean log10 CFU/kidneys (±SD) [4, 9]: 1.93 ± 0.44 log10 CFU/kidneys
CCCCCOc1ccc(-c2ccc(-c3ccc(C(=O)NC4CC(O)C(OCCOCCO)NC(=O)C5C(O)C(C)CN5C(=O)C(C(C)O)NC(=O)C(C(O)C(O)c5ccc(O)cc5)NC(=O)C5CC(O)CN5C(=O)C(C(C)O)NC4=O)cc3)cc2)cc1 (stereo not shown) [Compound 21] |  |  |  |  |  |  | Difference from 24-hr control [4, 6]: −1.53** log10 CFU/kidneys; Mean log10 CFU/kidneys (±SEM) [4, 6]: 3.35 ± 0.08 log10 CFU/kidneys; Difference from 24-hr control [4, 7]: −2.62*** log10 CFU/kidneys; Mean log10 CFU/kidneys (±SEM) [4, 7]: 2.26 ± 0.12 log10 CFU/kidneys; Difference from 24-hr control [4, 8]: −4.22*** log10 CFU/kidneys; Mean log10 CFU/kidneys (±SEM) [4, 8]: 0.65 ± 0.38 log10 CFU/kidneys; Effect on density of C. albicans in the kidneys compared to the infected controls ([4]; Third run, all dose levels (0.5, 1.5, 4.5 mg/kg)): significantly reduced the density
CC[C@H](C)C[C@H](C)CCCCCCCCC(=O)N[C@H]1C[C@@H](O)[C@@H](O)NC(=O)[C@@H]2[C@@H](O)CCN2C(=O)[C@H]([C@H](O)CC(N)=O)NC(=O)[C@H]([C@H](O)[C@@H](O)c2ccc(O)cc2)NC(=O)[C@@H]2C[C@@H](O)CN2C(=O)[C@H]([C@@H](C)O)NC1=O [Pneumocandin B0, pneumocandin B0, reference compound] ({Tetradecanoyl(10R,12S-Me2)}-[Orn(4R-OH,5R-OH)]T[Hyp][hTyr(3S-OH,4S-OH)][Gln(3R-OH)][Pro(3S-OH)]; lactam 1-C) | 0.25 (≈ 0.235 µM) | 4 (≈ 3.76 µM) | 8 (≈ 7.51 µM) | >16 | 1 (≈ 0.939 µM) | 0.25 (≈ 0.235 µM) | 
